The values below come from patent publication US12331029B2, “Orexin 1 receptor antagonists” (NXERA PHARMA UK LIMITED, priority 2018, dated 2025).

Where only a bound is given, the exact number is not on record here.

Experiment [1] has as its target T1, Human OX1 receptor (Homo sapiens, UniProt O43613).
T1 sequence (O43613 1-425): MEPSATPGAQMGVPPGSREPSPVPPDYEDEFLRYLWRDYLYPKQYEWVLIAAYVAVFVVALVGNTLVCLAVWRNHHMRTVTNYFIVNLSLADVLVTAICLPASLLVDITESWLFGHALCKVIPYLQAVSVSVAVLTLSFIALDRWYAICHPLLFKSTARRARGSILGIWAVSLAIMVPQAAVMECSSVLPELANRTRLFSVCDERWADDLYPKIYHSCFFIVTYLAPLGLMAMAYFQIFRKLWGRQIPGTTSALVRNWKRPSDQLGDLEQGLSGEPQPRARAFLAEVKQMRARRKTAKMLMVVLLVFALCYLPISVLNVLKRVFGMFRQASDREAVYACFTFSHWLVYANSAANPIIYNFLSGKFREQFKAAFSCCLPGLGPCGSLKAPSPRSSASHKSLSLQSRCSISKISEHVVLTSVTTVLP
Briefly: IPone accumulation assay, CHO cells expressing human OX1 receptor. In kind it is cell-based. To be noted: antagonism of orexin A (EC80) induced inositol phosphate turnover, read-out: fpKb average OX1 (converted). The method, then: (§1) Stable cell lines for the human OX1R and OX2R receptors were generated through the transfection of CHO cells using the transfection reagent Genejuice (Novagen number 70967) and cDNA coding for either the human OX1R or OX2R. Cells were cultured in Sigma Nutrient Mixture F-12 Ham media (catalog number N6658) supplemented with 10% heat-inactivated FBS. Forty-eight hours after transfection, cells were harvested and placed under geneticin selection by culturing in Sigma Nutrient Mixture F-12 Ham media supplemented with 10% heat-inactivated FBS and geneticin (ThermoFisher Catalog number: 10131035). Selection of the final stable clone for each receptor was made on the basis of receptor expression, assay signal to noise and robustness though increasing passage. Selected clones for the human OX1R and OX2R were then frozen down into liquid nitrogen using Cell Freezing Medium-DMSO (Sigma-Aldrich catalog number: C6164).
(§2) IPone accumulation assay. A CHO cell line stably expressing either human OX1 or OX2 receptor was used with the IPone HTRF assay kit (CisBio: Part #62IPAPEJ) to measure receptor activation. The assay was optimised to measure the ability (potency; fpKb) of antagonists to reduce agonist (orexin A)-induced inositol phosphate turnover. Briefly, cells were plated onto half area 96-well white walled plates at a density of 12,500 cells/well. Sixteen hours post-plating cell growth media was replaced with antagonist concentration-response curve diluted in stimulation buffer (supplied with the kit). Cells were incubated in a humidified incubator (37° C.) for 30 min before an EC80 challenge concentration (˜20 nM (OX1) and 40 nM (OX2)) of orexin A (Tocris catalogue number 1455). After 30 min stimulation in a humidified incubator (37° C.) the assay was terminated by the addition of detection mixture as per manufacturer's instructions. The concentration of compound which reduced orexin-A stimulated turnover of inositol phosphates by 50% (IC50) was calculated by fitting to a four parameter sigmoidal dose response curve. The IC50 values were converted to fpKB values using the orexin A pEC50 value estimated on each plate as well as the challenge concentration interpolated from the orexin A control curve.

For experiment [2], the target named is T2, Human OX2 receptor (Homo sapiens, UniProt O43614).
T2 sequence (O43614 1-444): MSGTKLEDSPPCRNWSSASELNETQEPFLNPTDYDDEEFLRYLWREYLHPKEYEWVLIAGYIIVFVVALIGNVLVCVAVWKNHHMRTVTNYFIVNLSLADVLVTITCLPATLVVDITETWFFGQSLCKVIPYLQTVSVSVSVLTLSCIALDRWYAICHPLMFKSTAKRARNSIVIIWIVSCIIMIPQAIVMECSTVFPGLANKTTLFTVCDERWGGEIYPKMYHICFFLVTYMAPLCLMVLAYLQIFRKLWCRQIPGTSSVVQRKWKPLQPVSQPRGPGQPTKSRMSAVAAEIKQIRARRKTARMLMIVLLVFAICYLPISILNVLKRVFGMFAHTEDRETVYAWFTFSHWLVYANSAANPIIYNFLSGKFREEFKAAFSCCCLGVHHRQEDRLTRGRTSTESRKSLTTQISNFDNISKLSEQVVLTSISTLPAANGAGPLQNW
Briefly: [3H]-radioligand binding assay, human OX2 receptor membranes.
Protocol: (§3) Human OX1 or OX2 receptor were cloned into Invitrogen's (ThermoFisher Scientific, UK) Bac-to-Bac Baculovirus Expression System. P0 baculovirus was generated by transfecting SF9 cells with bacmid DNA using Cellfectin® II transfection reagent (ThermoFisher Scientific, UK, Catalog number 10362-100). Following P0 generation P1 virus was then generated ready for large scale infection and membrane preparation. SF21 cells were grown in expression medium ESF921 (Expression Systems, USA, catalog number 96-001-01) supplemented with 10% heat-inactivated FBS and 1% Pen/Strep and were infected at a cell density of 2.5×10^6 cells/mL and a multiplicity of infection of 1.0 for both human OX1R and OX2R. Incubation was carried out at over 48 h in a shaking incubator set at 27° C. The cell culture was then centrifuged at 2,500 rcf for 10 min at 4° C. The pellets were resuspended in cold PBS supplemented with Roche's Complete EDTA-free protease inhibitor cocktail tablets (Roche Applied Sciences, catalog number 05056489001), 1 mM PMSF and 1 mM EDTA. The resuspended cell paste was then centrifuged at 3,273 rcf for 12 min at 4° C. The supernatant was discarded and the pellet frozen at −80° C. The cell pellet from a 4 L culture was resuspended in buffer containing 50 mM HEPES pH 7.5, 150 mM NaCl, 8 Roche EDTA-Free protease inhibitor cocktail tablets and 1 mM PMSF. The suspension was left stirring at rt for 1 h and then homogenised for 90 s at 9,500 rpm using a VDI 25 (VWR, USA) homogeniser. The cells were then lysed using a Microfluidiser processor M-110L Pneumatic (Microfluidics, USA) at 60 PSI and membranes collected by ultracentrifugation at 204.7 k×g for 1 h. The supernatant was discarded and the pellet was resuspended and homogenised in 90 s at 9,500 rpm in 50 mL (25 mL for each 2 L culture) of buffer containing 50 mM Hepes pH 7.5, 150 mM NaCl, 3 Roche EDTA-free protease inhibitor cocktail tablets and 1 mM PMSF. The resulting membranes were then stored at −80° C.
(§4) [^3H]-radioligand binding assay. After thawing, membrane homogenates were re-suspended in the binding buffer (8.5 mM HEPES, pH 7.4, 1.3 mM CaCl2, 1.2 mM MgSO4, 118 mM NaCl, 4.7 mM KCl, 4 mM NaHCO3, 1.2 mM KH2PO4, 11 mM glucose) to a final assay concentration of 6.4 μg (OX1) or 1.4 μg (OX2) protein per well. Saturation isotherms were determined by the addition of various concentrations (0-30 nM) of [^3H]-4-(2,6-difluoro-4-methoxybenzyl)-2-(5,6-dimethoxypyridin-3-yl)-2H-1,2,4-benzothiadiazin-3(4H)-one 1,1-dioxide (Christopher et al, MedChemComm., 2015, 6, 947-955) in a total reaction volume of 250 μL for 90 min at rt. At the end of the incubation, membranes were filtered onto a 96-well GF/B filter pre-incubated with 0.5% polyethylenimine, with a Tomtec cell harvester and washed 5 times with 0.5 mL distilled water. Non-specific binding (NSB) was measured in the presence of 3.33 μM [4-(5-chloro-1,3-benzoxazol-2-yl)-7-methyl-1,4-diazepan-1-yl][5-methyl-2-(2H-1,2,3-triazol-2-yl)phenyl]methanone (Wertz et al, Angew. Chem. Int. Ed., 2011, 50, 11511-11515). Radioactivity on the filter was counted (1 min) on a Microbeta radiometric plate counter (Perkin Elmer) after addition of 50 μL of scintillation fluid (LabLogic: Part #SG-BXX-14). […] IC50 values were derived from the inhibition curve and the equilibrium dissociation constant (Ki) values were calculated using the Cheng-Prusoff equation.

For experiment [3], the target named is T1, Human OX1 receptor. Briefly: [3H]-radioligand binding assay, human OX1 receptor membranes.
Protocol: as §3, §4
Experiment [4] deals with T2, Human OX2 receptor. Description: IPone accumulation assay, CHO cells expressing human OX2 receptor. In kind it is cell-based. To be noted: antagonism of orexin A (EC80) induced inositol phosphate turnover, read-out: fpKb average OX2. As to the method:
as §1
as §2, with “Cells were incubated in a humidified incubator (37° C.) for 30 min before an EC80 challenge concentration (˜20 nM (OX1) and 40 nM (OX2)) of orexin A (Tocris catalogue number 1455).” left out

The term Ki denotes the equilibrium dissociation constant of an inhibitor or competing ligand from its target. As to `O=C(N[C@H]1CCC[C@@H]1COc1ccc(F)cc1)c1ccccc1-n1nccn1` [Example 1, N-[(1S,2S)-2-[(4-fluorophenoxy)methyl]cyclopentyl]-2-(triazol-2-yl)benzamide], the Kb at Human OX1 receptor [1] was 126 nM; on Human OX2 receptor [4] it was greater than 1580 nM. Besides, the Ki at Human OX2 receptor [2] is greater than 3160 nM; at Human OX1 receptor [3], 10 nM.

Take `Cc1ccc(-c2ncccn2)c(C(=O)N[C@H]2CCC[C@@H]2COc2ccc(F)cc2)c1` [Example 2, N-[(1S,2S)-2-[(4-fluorophenoxy)methyl]cyclopentyl]-5-methyl-2-pyrimidin-2-yl-benzamide]: the Kb at Human OX1 receptor [1] was 63.1 nM; on Human OX2 receptor [4] it was greater than 1260 nM. The Ki is greater than 5010 nM on Human OX2 receptor [2] and 5.01 nM on Human OX1 receptor [3].

As for `Cc1ccc(-n2nccn2)c(C(=O)N[C@H]2CCC[C@@H]2COc2ccc(F)cc2)c1` [Example 3, N-[(1S,2S)-2-[(4-fluorophenoxy)methyl]cyclopentyl]-5-methyl-2-(triazol-2-yl)benzamide], the inhibition constant Ki on Human OX2 receptor [2] was greater than 1260 nM; at Human OX1 receptor [3], 15.8 nM.

Take `O=C(N[C@H]1CCC[C@@H]1COc1ccc(F)cc1)c1c(F)cccc1-n1nccn1` [Example 4, 2-fluoro-N-[(1S,2S)-2-[(4-fluorophenoxy)methyl]cyclopentyl]-6-(triazol-2-yl)benzamide]: the Kb on Human OX1 receptor [1] was 63.1 nM; on Human OX2 receptor [4], greater than 2000 nM. Also, the Ki on Human OX2 receptor [2] is greater than 3160 nM; on Human OX1 receptor [3], 3.98 nM.

In the case of `COc1cccc(-n2nccn2)c1C(=O)N[C@H]1CCC[C@@H]1COc1ccc(F)cc1` [Example 5, N-[(1S,2S)-2-[(4-fluorophenoxy)methyl]cyclopentyl]-2-methoxy-6-(triazol-2-yl)benzamide], the Kb was 1.58 nM on Human OX1 receptor [1] and greater than 501 nM on Human OX2 receptor [4]. The Ki on Human OX2 receptor [2] is 200 nM; at Human OX1 receptor [3] it was 1.58 nM.

Turning to `COc1cccc(-n2nccn2)c1C(=O)N[C@H]1CCC[C@@H]1COc1ccc(Cl)cc1` [Example 6, N-[(1S,2S)-2-[(4-chlorophenoxy)methyl]cyclopentyl]-2-methoxy-6-(triazol-2-yl)benzamide], the Kb is 6.31 nM on Human OX1 receptor [1] and greater than 794 nM on Human OX2 receptor [4]. For the same compound, the figures for the Ki on Human OX2 receptor [2] and at Human OX1 receptor [3] were 200 nM and 2.51 nM, respectively.

Consider `[2H]C([2H])(Oc1ccc(F)cc1)[C@H]1CCC[C@@H]1NC(=O)c1c(OC)cccc1-n1nccn1` [Example 7, N-[(1S,2S)-2-[dideuterio-(4-fluorophenoxy)methyl]cyclopentyl]-2-methoxy-6-(triazol-2-yl)benzamide], for which the Kb on Human OX1 receptor [1] was 0.794 nM; at Human OX2 receptor [4], greater than 794 nM. In addition, the inhibitory constant (Ki) is 158 nM on Human OX2 receptor [2] and 2.51 nM at Human OX1 receptor [3].

As to `O=C(N[C@H]1CCC[C@@H]1COc1ccc(F)cc1)c1c(OC(F)F)cccc1-n1nccn1` [Example 8, 2-(difluoromethoxy)-N-[(1S,2S)-2-[(4-fluorophenoxy)methyl]cyclopentyl]-6-(triazol-2-yl)benzamide], the Kb at Human OX1 receptor [1] is 79.4 nM; at Human OX2 receptor [4] it was greater than 398 nM. In addition, the inhibitory constant (Ki) is 631 nM at Human OX2 receptor [2] and 6.31 nM at Human OX1 receptor [3].

Take `COc1cccc(-c2ncccn2)c1C(=O)N[C@H]1CCC[C@@H]1COc1ccc(F)cc1` [Example 9, N-[(1S,2S)-2-[(4-fluorophenoxy)methyl]cyclopentyl]-2-methoxy-6-pyrimidin-2-yl-benzamide]: on Human OX1 receptor [1], the Kb was 10 nM. Further, the affinity on Human OX1 receptor [3], expressed as Ki, was 3.98 nM.

On to `O=C(N[C@H]1CCC[C@@H]1COc1ccc(F)cc1)c1c(F)cccc1-c1ncccn1` [Example 10, 2-fluoro-N-[(1S,2S)-2-[(4-fluorophenoxy)methyl]cyclopentyl]-6-pyrimidin-2-yl-benzamide], for which the Kb at Human OX1 receptor [1] was 20 nM; at Human OX2 receptor [4], greater than 631 nM. Further, the Ki on Human OX2 receptor [2] was 1580 nM; on Human OX1 receptor [3], 6.31 nM.

For the compound `COc1cccc(-c2cnccn2)c1C(=O)N[C@H]1CCC[C@@H]1COc1ccc(F)cc1` [Example 11, N-[(1S,2S)-2-[(4-fluorophenoxy)methyl]cyclopentyl]-2-methoxy-6-pyrazin-2-yl-benzamide], the values for the Kb at Human OX1 receptor [1] and on Human OX2 receptor [4] were 20 nM and greater than 631 nM, respectively. For the same compound, the affinity on Human OX1 receptor [3] corresponds to a Ki of 7.94 nM.

For `COc1cccc(-c2ccncn2)c1C(=O)N[C@H]1CCC[C@@H]1COc1ccc(F)cc1` [Example 12, N-[(1S,2S)-2-[(4-fluorophenoxy)methyl]cyclopentyl]-2-methoxy-6-pyrimidin-4-yl-benzamide], the Kb on Human OX1 receptor [1] was 12.6 nM; at Human OX2 receptor [4], greater than 631 nM. Further, the Ki was 1000 nM on Human OX2 receptor [2] and 3.16 nM at Human OX1 receptor [3].

In the case of `COc1cccc(-c2ncc(F)cn2)c1C(=O)N[C@H]1CCC[C@@H]1COc1ccc(F)cc1` [Example 13, N-[(1S,2S)-2-[(4-fluorophenoxy)methyl]cyclopentyl]-2-(5-fluoropyrimidin-2-yl)-6-methoxy-benzamide], the Kb is 31.6 nM at Human OX1 receptor [1] and greater than 631 nM at Human OX2 receptor [4]. For the same compound, the inhibitory constant (Ki) is 1580 nM on Human OX2 receptor [2] and 12.6 nM on Human OX1 receptor [3].

Turning to `[2H]C([2H])([2H])Oc1cccc(-n2nccn2)c1C(=O)N[C@H]1CCC[C@@H]1COc1ccc(F)cc1` [Example 14, N-[(1S,2S)-2-[(4-fluorophenoxy)methyl]cyclopentyl]-2-(triazol-2-yl)-6-(trideuteriomethoxy)benzamide], the Kb at Human OX1 receptor [1] is 1 nM; at Human OX2 receptor [4], greater than 501 nM. Also, the Ki was 126 nM on Human OX2 receptor [2] and 1.26 nM on Human OX1 receptor [3].

As for `COc1cccc(-n2nccn2)c1C(=O)N[C@H]1CCC[C@@H]1COc1ccc(F)cn1` [Example 31, N-[(1S,2S)-2-[(5-fluoro-2-pyridyl)oxymethyl]cyclopentyl]-2-methoxy-6-(triazol-2-yl)benzamide], the Kb on Human OX1 receptor [1] was 10 nM. The same compound had an inhibitory constant (Ki) on Human OX1 receptor [3] of 6.31 nM.

For `[2H]C([2H])([2H])Oc1cccc(-n2nccn2)c1C(=O)N[C@H]1CCC[C@@H]1COc1ccc(F)cn1` [Example 33, N-[(1S,2S)-2-[(5-fluoro-2-pyridyl)oxymethyl]cyclopentyl]-2-(triazol-2-yl)-6-(trideuteriomethoxy)benzamide], the Kb at Human OX1 receptor [1] was 15.8 nM. Further, the inhibition constant (Ki) on Human OX1 receptor [3] was 3.98 nM.

Broadly, the Kd is a measure of binding affinity in units of concentration. Consider `COc1cc(F)c(CN2C(=O)N(c3cnc(OC)c(OC)c3)S(=O)(=O)c3ccccc32)c(F)c1` [[^3H]-4-(2,6-difluoro-4-methoxybenzyl)-2-(5,6-dimethoxypyridin-3-yl)-2H-1,2,4-benzothiadiazin-3(4H)-one 1,1-dioxide, reference compound], for which the Kd was determined as 0.75 nM at Human OX2 receptor [2] (read-out: KD value of the radioligand, OX2, saturation isotherms) and 1.5 nM at Human OX1 receptor [3] (read-out: KD value of the radioligand, OX1, saturation isotherms).
